{"source": "patent US5208223A", "about": "“Phosphocholine derivative inhibitors of phospholipase A2” (American Cyanamid Company, priority 1992, dated 1993)", "format_in_all_cases": "biochemical", "key": {"porcine pancreatic PLA2 [1]": {"target": "T1, porcine pancreatic PLA2 (Sus scrofa, UniProt P00592)", "T1 construct": "purchased Sigma", "T1 sequence (P00592 23-146)": "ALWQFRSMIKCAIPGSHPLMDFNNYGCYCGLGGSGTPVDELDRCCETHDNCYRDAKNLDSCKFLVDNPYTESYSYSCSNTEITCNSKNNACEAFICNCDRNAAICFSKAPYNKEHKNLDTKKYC", "assay": "MPLA2 assay: in vitro porcine pancreatic phospholipase A2, mixed micelle design, substrate 2 nM", "in_short": "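Radiochemical PLA2 assay, mixed-micelle design: compound dried under N2 with 1-stearyl-2-[3H]-arachidonyl-PC substrate (2 nM) in 0.1M Tris-HCl pH 9.0, 10 mM CaCl2, 10 mM Na taurocholate. Reaction started with enzyme, 15 min at 37° C, stopped with TCA; released [3H]-arachidonate extracted, separated by TLC or column, counted by scintillation.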"}, "porcine pancreatic PLA2 [2]": {"target": "T1, porcine pancreatic PLA2", "assay": "HPLA2 assay: in vitro porcine pancreatic phospholipase A2, preincubation design, [s]=10 μm", "details": "for inhibition at 10 µg/mL: dose 10 μ/ml; for inhibition at 20 µg/mL: dose 20 μ/ml; for inhibition at 50 µg/mL: dose 50 μ/ml", "procedure": "Phospholipase A2 activity was measured by a radiochemical assay in which labeled synthetic phosphatidylcholine substrate is converted by porcine pancreatic PLA2 to free radiolabeled arachidonate and lyso PC. Radiolabeled arachidonate is extracted from the reaction mixture and separated from unreacted substrate by column chromatography or TLC. Radioactivity (cpm) in samples is quantitated by liquid scintillation counting. Specific details are as follows:\nLabeled substrate(1-stearyl-2-^3 H-arachidonylphosphatidylcholine; Amersham, sp. act. 84 (uCi/mmole, 0.025 to 0.2 uCi/assay tube and unlabeled substrates (Avanti), in sufficient quantity to give 20,000 cpm to 50,000 cpm and 10 μM to 1,000 μM final concentration/assay tube are dried under a stream of nitrogen. The PLA2 and mPLA2 assays utilized a […] substrate concentration. The mHPLA2 and HPLA2 assays (vida infra) utilized a 10 μM substrate concentration and the SmPLA2 assay utilized a substrate concentration ranging from 100 to 1000 μm. The substrate is then redissolved in 0.1M tris-HCl buffer, pH 9.0 containing 10 mM CaCl2 and 10 mM Na taurocholate detergent. The mixture is sonicated in a Kontes Sonifier to yield a homogeneous dispersion. The \"mixed\" micellar substrate is clear. An aliquot is reserved for a cpm count (total substrate). The total reaction volume is 500 μL; siliconized glassware or plasticware is used throughout. Enzyme (Sigma, sp. act.>690 U/mg protein and preferably 900 U/mg protein) is diluted 1:750 or 1:1000 in 0.1M tris-HCl buffer, pH 9.0 (without Ca^++ and detergent). Enzyme dilution depends on substrate concentration and required enzyme concentration.\nThe substrate in buffer is kept on ice until the reaction is started. The reaction is started by adding 10 μL of diluted enzyme solution to 490 μL of micellar substrate solution. Samples are incubated in a 37° C. water bath for 15 minutes with gentle mixing. The reaction is terminated by the addition of 100 μL of 1M fresh trichloroacetic acid (TCA) solution and chilling the tubes on ice for 30 minutes.\nSamples (600 μL) are extracted with 3 ml CHCl3 /MeOH (2:1) for thin layer chromatography or in hexane/ether (9:1) for column chromatography. The phases are separated by gentle centrifugation at 700 rpm×5'. The organic phase is recovered.\nLabeled arachidonate extracted with CHCl3 /MeOH is separated on silica gel G TLC plates (Analtech). Twenty μL of a 2 mg/ml internal standard solution of arachidonic acid (Sigma) is combined with 2-3 ml of the organic phase. The entire mixture is dried under nitrogen and redissolved in 50 μL of CHCl3 /MeOH (2:1). A 20 μL sample is counted in 10 ml of Beckman Redi-solv HP and spotted on silica gel G plates. […] Plates are developed in a glass chamber for 1-11/2 hours, air dried, and the spots visualized in an iodine vapor chamber. Standards of phosphatidylcholine, lyso PC, and arachidonic acid (Sigma) are made as 2 mg/ml stocks in CHCl3 /MeOH (2:1) and spotted on plates. Spots corresponding to arachidonate and phospholipid are scraped and counted in 10 ml Beckman Redi-Solv HP scintillation fluid.\nSamples are extracted with hexane/ether and the upper organic phase recovered. An aliquot is applied to a Silicar CC4 (Malincrodt) column. Columns are prepared using 1 ml of a 1:1 slurry of silicar CC4 in hexane/ether in a Pasteur pipet (approx. 2 cm height). Columns are rinsed with 500 μL of hexane/ether before adding the sample (300-600 μL) to the column. Columns are eluted with a total of 6 ml of hexane/ether. The 6 ml sample is counted in 10 ml of Beckman Redi-Solv HP scintillation fluid.\nor the phospholipase A2 assay, compounds are prepared as 1 mg/ml stock solutions in MeOH and diluted appropriately in PBS."}, "porcine pancreatic PLA2 [3]": {"target": "T1, porcine pancreatic PLA2", "assay": "MHPLA2 assay: in vitro porcine pancreatic phospholipase A2, mixed micelle design, [s]=10 μm", "in_short": "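Compounds dried with 10 μM 1-stearyl-2-[3H]-arachidonyl-PC substrate in mixed micelles (0.1M tris-HCl pH 9.0, 10 mM CaCl2, 10 mM Na taurocholate). Reaction started by adding enzyme and run 15 min at 37°C, then stopped with TCA. Released [3H]-arachidonate separated by TLC or column and counted by scintillation.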"}, "porcine pancreatic PLA2 [4]": {"target": "T1, porcine pancreatic PLA2", "assay": "PLA2 assay: in vitro porcine pancreatic phospholipase A2, preincubation of drug+enzyme, substrate 2 nM", "details": "preincubation, subs. con. 2", "in_short": "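Porcine pancreatic PLA2 acting on 2 nM radiolabeled arachidonyl-phosphatidylcholine in mixed micelles (0.1 M Tris-HCl pH 9.0, 10 mM CaCl2, 10 mM Na taurocholate), 15 min at 37 °C with preincubation of drug and enzyme. Stopped with TCA; released 3H-arachidonate extracted, separated by TLC or column, counted by scintillation.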"}, "[5]": {"details": "subs. con. 10, read-out: % Inh."}, "[6]": {"details": "subs. con. 10, read-out: % Inh. Avg."}}, "note": "Where a name gives a salt, the structure may show the parent alone. Read-outs that look alike come from different tables or passages of the source."}
{"compound": "CCCCCCCCCCCCCCCCOCC(COP(=O)([O-])OCC[N+](C)(C)C)C[S+]([O-])CCCCCCCCCCCCCCCC", "note": "(centres unmarked) [7-[(Hexadecylsulfinyl)methyl]-4-hydroxy-N,N,N-trimethyl-3,5,9-trioxa-4-phosphapentacosan-1-aminium, hydroxide, inner salt, 4-oxide]", "values": [{"measurement": "inhibition at 10 µg/mL", "setting": "porcine pancreatic PLA2 [1]; dose 10 μ/ml, subs. con. 2, read-out: % Inh.", "value": 71, "unit": "%"}, {"measurement": "inhibition at 20 µg/mL", "setting": "porcine pancreatic PLA2 [1]; dose 20 μ/ml, subs. con. 2, read-out: % Inh.", "value": 84, "unit": "%"}, {"measurement": "inhibition at 25 µg/mL", "setting": "porcine pancreatic PLA2 [1]; dose 25 μ/ml, subs. con. 2, read-out: % Inh.", "value": 98, "unit": "%"}, {"measurement": "IC50", "setting": "porcine pancreatic PLA2 [1]; subs. con. 2", "value": 3860, "unit": "nM"}, {"measurement": "inhibition at 10 µg/mL", "setting": "porcine pancreatic PLA2 [2]; [5]", "value": 27, "unit": "%"}, {"measurement": "inhibition at 10 µg/mL", "setting": "porcine pancreatic PLA2 [2]; [6]", "value": 22, "unit": "%"}, {"measurement": "inhibition at 20 µg/mL", "setting": "porcine pancreatic PLA2 [2]; [5]", "value": 33, "unit": "%"}, {"measurement": "inhibition at 20 µg/mL", "setting": "porcine pancreatic PLA2 [2]; [6]", "value": 33, "unit": "%"}, {"measurement": "inhibition at 50 µg/mL", "setting": "porcine pancreatic PLA2 [2]; [5]", "value": 36, "unit": "%"}, {"measurement": "inhibition at 50 µg/mL", "setting": "porcine pancreatic PLA2 [2]; [6]", "value": 42, "unit": "%"}, {"measurement": "inhibition at 10 µg/mL", "setting": "porcine pancreatic PLA2 [3]; dose 10 μ/ml, subs. con. 10, read-out: % Inh.", "value": 3, "unit": "%"}, {"measurement": "inhibition at 20 µg/mL", "setting": "porcine pancreatic PLA2 [3]; dose 20 μ/ml, subs. con. 10", "value": 22, "unit": "%"}, {"measurement": "inhibition at 25 µg/mL", "setting": "porcine pancreatic PLA2 [3]; dose 25 μ/ml, subs. con. 10, read-out: % Inh.", "value": 68, "unit": "%"}, {"measurement": "% Inh.", "setting": "porcine pancreatic PLA2 [4]; dose 10 μ/ml", "value": 88, "unit": "%"}, {"measurement": "inhibition at 10 µg/mL", "setting": "porcine pancreatic PLA2 [4]; dose 10 μ/ml, read-out: % Inh. Avg.", "value": 66, "unit": "%"}, {"measurement": "inhibition at 20 µg/mL", "setting": "porcine pancreatic PLA2 [4]; dose 20 μ/ml, read-out: % Inh.", "value": 93, "unit": "%"}, {"measurement": "IC50", "setting": "porcine pancreatic PLA2 [4]; read-out: IC50 (converted)", "value": 1860, "unit": "nM"}]}
